Data: patent US8617567B2, “Fungus polyose composition with immunity enhancing effect and application thereof” (priority 2009, dated 2013)

Test system: S180 cancer bearing mice
Details: S180 NIH mice, 100 mg/kg intraperitoneal, 2 times per week, 11 days
Method: 85 healthy NIH mice, unisexual, were selected. […] The other 55 mice were used for solid tumor test.
At the beginning of the experiment, 20 mice with ascites were selected and sacrificed by pulling the cervical vertebrae on a sterilized bench, then the abdomens were sterilized with iodine tinctur, 75% alcohol q-tips in turn. The ascites were collected with 3 ml asepsis disposable syringe and put in asepsis dry conical flask and stored on the ice. […] It should be noted that the ascites collected were a milk-yellow or milk-white fluid, and the ascites with a larger quantity of RBC should be discarded. After the ascites were diluted 100 times, the cell density was measured to about 2×10^7/ml by the method of Trypan Blue count. The ascites were diluted with saline. The diluted ascites were subcutaneously injected, at a dosage of 0.2 ml, into the right armpit of each mouse.
After all qualified 55 mice were injected, they were randomly divided into 5 groups: the blank control group, the compound fungus polyose low-, medium-, and high-dosage groups, and the positive cyclophosphamide control group, respectively. 11 mice were in each group. […] After 11 days of administration, all mice were sacrificed and their body weights, tumor weights, thymic weights, and spleen weights were measured. After the end of the experiment, statistical treatment of data was carried out to compare the difference among the groups. Thymus (spleen) index=Thymus (spleen) weight/Body weight×10 g Body Weight Changes=Body weight after administration−Body weight before administration Inhibition ratio %=(Tumor weight in blank group−Tumor weight in treatment group)/Tumor weight in blank group×100% 4.2 Mice Immune Function Test 4.2.1 Mice Carbon Clearance Test

Question: For `O=P1(N(CCCl)CCCl)NCCCO1` (centres unmarked) [Cyclophosphamide], which “Condition of thymus and spleen” value is on record?
Answer: The value was “obvious atrophy”.

Question: What about the Spleen index of the same compound?
Answer: The Spleen index was 0.0322 ± 0.0190 g/10 g.

Question: And the Thymus index?
Answer: The Thymus index was 0.0117 ± 0.0041 g/10 g.

Question: And the Tumor weight?
Answer: The Tumor weight was 0.0502 ± 0.0253 g.

Question: And the Anti-tumor ratio (vs blank control)?
Answer: The Anti-tumor ratio was 95.9%.
